Results on three compounds are retold here after patent US20050148505A1, “Genes and agents to regulate follicular development, ovulation cycle and steriodogenesis” (priority 2003, published 2005).

The test system of one test is CTBP mRNA. Put plainly: CTBP mRNA expression in primary granulosa cell culture by semi-quantitative RT-PCR. The format is cell-based, rat. As to conditions: 6 h; for CTBP mRNA level, inhibitor alone in the absence of FSH: CHX 10 μg/ml or α-amanitin 30 μg/ml, compared to control. Here is the method: FIG. 3. CTBP mRNA expression in primary granulosa cell culture. Granulosa cells were isolated from the ovaries of 24 day old immature rat primed with 17β-estradiol. The cells were cultured in the presence of 30 ng/ml FSH for up to 48 h, and RNA was extracted and amplified for CTBP using quantitative RT-PCR. In addition, L-19 mRNA was probed as an internal control. The CTBP values were normalized with the corresponding values of L-19 and two independent experimental values were averaged.
FIG. 5. Effects of cycloheximide and α-amanitin treatment on the FSH/forskolin-induced expression of CTBP mRNA. Granulosa cells were isolated from 17β-estradiol primed 24-day old immature rat ovaries and cultured with FSH (30 ng/ml) or forskolin (10 μM, FSK) in the presence or absence of cycloheximide (10 μg/ml, CHX) or α-amanitin (30 μg/ml, AMA) for the 6 h. CHX, a translation inhibitor, and AMA, a transcription inhibitor, were pretreated to the cell cultures one hour before hormone treatment. Total RNA was isolated and analyzed for CTBP and L-19 mRNA by semi-quantitative RT-PCR assay using 23 cycles for CTBP and 20 cycles for L-19. L-19 was used as an internal control. Values shown are the range of two independent experiments along with the mean, indicated by bars.
For granulosa cell culture, immature rats were daily injected sub cutaneously with 1.5 mg of 17β-estradiol at 21, 22 and 23 days of age. […] After cells were washed three times in 4F, they were plated on serum-coated, 6-well plates at a density of ˜1×10^6 cells per […] and incubated in the humidified atmosphere of 5% CO2 at 37 C. After 16 h, FSH (30 ng/ml) or forskolin (10 μM) was added to the cultures. For the inhibition of protein synthesis or transcription, cycloheximide (10 μg/ml) or α-amanitin (30 μg/ml) was added, respectively, 1 h before hormone treatment.
RT-PCR was performed as previously described (Ko et al. 1999 Endocrinology 140:5185-519411). Total RNA (1-2 μg) was reverse-transcribed at 37° C. in 20 μl using random hexamer (500 ng) and MMLV reverse transcriptase (10 units) (New England BioLabs, Boston, Mass.). Complementary DNA (cDNA) in 2 μl was added for a total 25 μl reaction mixture containing the primers (200 ng each), 0.4 mM dNTP mixture, and Taq DNA polymerase (2.5 U) in 1×PCR buffer (10 mM Tris, pH 8.3, 50 mM KCl, 1.5 mM MgCl2, 0.01% gelatin). All PCR amplifications were carried out for 20, 25, 30 cycles on a MJ research Minicycler (MJ Research, MA). PCR products were separated by 2% agarose gel electrophoresis, stained with SYBR® Green I (Molecular Probes), and visualized on a phosphoimager. The primers were 5′-ctg act ggc gag aac tgg atg-3′SEQ ID NO. 1) and 5′-aca gta tgc agg ctt cgc tcc-3′ (SEQ ID NO. 2) for 160 bp CTBP, 5′-gct ttc cct ctg ttg acc cac-3′(SEQ ID NO. 3) and 5′-aga tgt tga ggg cag ctc gat-3′(SEQ ID NO. 4) for 255 bp inhibin α, 5′-ctg aag gtc aaa ggg aat gtg-3′ (SEQ ID NO. 5) and 5′-gga cag agt ctt gat gat ctc-3′ (SEQ ID NO. 6) for 194 bp L-19 as an internal control.

For a further test, the system named is granulosa cells. Description: Estrogen production by granulosa cells, assayed in culture media. The format is cell-based. As to conditions: for FSH-induced estrogen production: FSH pre-treated granulosa cells. Here is the method:
FIG. 7. Effects of T3 hormone on estrogen production. (A) Granulosa cells were treated with increasing concentrations of FSH and the culture media were assayed for estrogen production. (B) Granulosa cells that were pre-treated with FSH were treated with T3 for varying time periods, 0-4 days. The culture media were assayed for estrogen. (C) Granulosa cells were treated with none, thyroid hormone T3, FSH, or FSH and T3 combo for 3 or 5 days. The culture media were assayed for estrogen production. […] The culture media were assayed for estrogen production.

Turning to `CC[C@H](C)[C@@H]1NC(=O)CNC(=O)[C@@H]2Cc3c([nH]c4cc(O)ccc34)[S+]([O-])C[C@@H](NC(=O)CNC1=O)C(=O)N[C@@H](CC(N)=O)C(=O)N1C[C@H](O)C[C@H]1C(=O)N[C@@H]([C@@H](C)[C@@H](O)CO)C(=O)N2` (stereo in doubt) [α-amanitin], the “CTBP mRNA level, inhibitor alone in the absence of FSH” value in the test on CTBP mRNA is on record as “did not significantly impact the expression level”. In the test on CTBP mRNA (α-amanitin 30 μg/ml plus FSH 30 ng/ml), the “CTBP mRNA expression, co-treatment with FSH” value is “completely abolished”.

For `N[C@@H](Cc1cc(I)c(Oc2ccc(O)c(I)c2)c(I)c1)C(=O)O` [T3], the FSH-induced estrogen synthesis result in the test with granulosa cells (FSH and T3 combo for 3 or 5 days) is “suppresses”. Also, the figures for the FSH-induced estrogen production entry in the test with granulosa cells (T3 by day 4) and in the test with granulosa cells (T3 within 24 h) were “completely blocked” and “suppressed”, respectively. Moreover, the hCG-dependent estrogen production entry in the test with granulosa cells (hCG and T3 combo for 3 or 5 days) was “stimulates”.

On to `C[C@@H]1C[C@@H]([C@H](O)CC2CC(=O)NC(=O)C2)C(=O)[C@@H](C)C1` [cycloheximide], for which the “CTBP mRNA level, inhibitor alone in the absence of FSH” value in the test on CTBP mRNA is listed as “increased the CTBP mRNA level”. Further, in the test with CTBP mRNA (CHX 10 μg/ml added 1 h before FSH 30 ng/ml, compared with absence of CHX), the “FSH-dependent decrease in CTBP mRNA in the presence of inhibitor” value is given as “significantly less”. In addition, the “forskolin-induced reduction of CTBP mRNA level in the presence of inhibitor” value in the test on CTBP mRNA (cycloheximide 10 μg/ml plus forskolin 10 μM) was “partially prevented”.
